These results are taken from patent US20120121705A1, “Pharmaceutical Or Cosmetic Or Dietetic Composition Suitable For Promoting A Hair Pigmentation Effect” (priority 2009, published 2012).

The test system of this experiment is hair follicle pigmentation unit. Put plainly: Hair pigmentation: quantitative Masson-Fontana melanin staining in organ-cultured human scalp skin / hair follicles. The format is cell-based. Conditions: spermidine 3HCl 0.1 μM, given at each medium change (every 48 hours), 6 days organ culture; compared with vehicle; FIG. 1 and FIG. 2. Here is the method: The skin of normal human scalp was taken from a person who had undergone a routine face lifting surgery after receiving the informed consent. All the experiments were carried out according to the Helsinki principles, with the ethical committee's approval.
The tissues subject to biopsy with 3-4 mm cylindrical scalpel were cultured at 37° C. for 6 days in Williams E medium (Biochrom, Cambridge, U.K.), integrated with 100 IU ml^−1 penicillin, 10 μg ml^−1 streptomycin (Gibco, Karlsruhe, Germany), 10 μg ml^−1 insulin (Sigma, Taukfirchen, Germany), 10 ng ml^−1 hydrocortisone (Sigma) and 2 mmol L^−1 (L-glutamine (Invitrogen, Paisley, U.K.). […]
The Masson-Fontana staining was carried out for the histochemical display of melanin on frozen sections. Melanin was stained in the form of brown granules and the pigmentation level was determined through the quantitative Masson-Fontana technique (Ito N., Ito T., Kromminga A., Bettermann A., Takigawa M., Kees F., Straub R. H., and Paus R. (2005): Human hair follicles display a functional equivalent of the hypothalamic-pituitary-adrenal axis and synthesize cortisol. FASEB J 19, 1332-4). […]
The staining intensity was analyzed in a defined reference region of the hair follicle pigmentation unit using the ImageJ software (National Institute of Health). […]

SMILES strings stand for the structures.

As for `NCCCCNCCCN` [spermidine, N-(3-aminopropyl)butan-1,4-diamine], the “pigmentation intensity in hair follicles (melanin, Masson-Fontana staining)” value is “increase of melanin”.
